From US10940201B2, “Nucleic acid derivative having immunostimulatory activity” (Shionogi & Co., Ltd., priority 2015, dated 2021)

What was measured:
B16F10 cells = test: Anti-tumor effect of TRP2 peptide vaccine using an adjuvant; type: in vivo, mouse
Protocol: After immunization by TRP2 peptide vaccine, B16F10 cells (ATTC) which is mouse melanoma expressing TRP2 protein was subcutaneously transplanted to evaluate anti-tumor effect. […] The major and minor axes of the engrafted tumor were measured every 2 to 3 days, and the tumor volume was calculated by the formula: (major axis×minor axis^2)/2 Calculation method for indicators of anti-tumor effect For the adjuvant comprising ODN1826 100·(average tumor volume of adjuvant group)/(average tumor volume of ODN1826 group) For the adjuvant comprising ODN2006 100·(average tumor volume of adjuvant group)/(average tumor volume of ODN2006 group)

TRP2-specific CTL = test: CTL inducibility of TRP2 peptide vaccine with adjuvant (tetramer staining); type: in vivo, C57BL/6JJcl mice
Protocol: C57BL/6JJcl mice (6 to 8 weeks old) were purchased from CLEA Japan, Inc.
an adjuvant of the present invention or the well-known CpG ODN
The specific immunity was induced by vaccinating a mouse twice at 7 days intervals. Each vaccine was that 100 μg of TRP2 peptide, and 1.57 or 4.71 nmol of an adjuvant of the present invention or well-known CpG ODN, were dissolved in 1×PBS. 100 μL of the vaccine was administered subcutaneous injection on the flank of a mouse.
100 μL of the emulsion vaccine was administered subcutaneous injection on the flank of a mouse twice at 7 days intervals.
On 7 days after second vaccination, the blood was collected, red blood cells was removed by BD Pharm Lyse (BD pharmingen), and the white blood cells were suspended in FACS buffer (1% fetal bovine serum, 2 mM PBS with EDTA). Anti-mouse CD16/32 monoclonal antibody (BioXcell) was added thereto, and Fc receptor blocking was carried out at 4° C. for 30 minutes. […] Then, staining was carried out with DAPI (Invitrogen) and the cells were washed twice with FACS buffer. It was resuspended in FACS buffer and analyzed by FACS verse Flow Cytometer (BD bioscience) and FAC Suite software (BD bioscience). For analysis, after DAPI negative fraction was gated, white blood cells fraction were provided using forward and side-way scattering as indicators. In the white blood cells fraction, both positive cells of Alexa 647-CD8 and PE-H-2Kb Tetramer were defined as CTLs. CTL ratio in white blood cells was used for evaluation.
After calculation of the average CTL inducibility of each group per experiment, the ratio against average value of CTL inducibility of ssCpG ODN, ODN1826 (SEQ-1) or ODN2006 (SEQ-49) as a control was calculated.
In the case of an adjuvant comprising ODN1826 (Average of CTL inducibility of the adjuvant group)/(Average of CTL inducibility of the ODN1826 group)=the ratio against average value In the case of an adjuvant comprising ODN2006 (Average of CTL inducibility of the adjuvant group)/(Average of CTL inducibility of the ODN2006 group)=the ratio against average value
CTL inducibility of each adjuvant was shown when CTL inducibility of ssCpG ODN was taken as 1, so the bigger value means the higher CTL inducibility.

## Amph1826 [SEQ-2]
B16F10 cells; Day 12 after transplantation, Result 4-B, FIG. 3
  tumor inhibition rate compared to ODN1826: about 3.5%
B16F10 cells; Day 12 after transplantation, Result 6-B, FIG. 4
  tumor inhibition rate compared to ODN1826: 64.3%
B16F10 cells; Day 14 after transplantation, Result 7-B, FIG. 5
  tumor inhibition rate compared to ODN1826: about 72.6%
B16F10 cells; Table 37, 1.57 nmol/head, compared to ODN1826 (SEQ-1)
  Tumor inhibition rate (Day 14 after transplantation): 72.64%
TRP2-specific CTL; Table 34, 1.57 nmol/head, ODN1826 (SEQ-1) group = 1
  Ratio of average value of antigen-specific CTL: 1.68
TRP2-specific CTL; Table 36, 1.57 nmol/head (Montanide 100 μL), ODN1826 (SEQ-1) group = 1
  Ratio of average value of antigen-specific CTL: 3.23
TRP2-specific CTL; Table 37, 1.57 nmol/head, ODN1826 (SEQ-1) group = 1
  Ratio of average value of antigen-specific CTL: 3.11
TRP2-specific CTL; adjuvants comprising ODN1826
  CTL inducibility (in words): higher CTL inducibility than ODN1826

## ODN2006 [SEQ-49]
B16F10 cells
  effect of inhibition on tumor progression of B16F10 cells (in words): little effect of inhibition on tumor progression of B16F10 cells
B16F10 cells; Table 41, 4.71 nmol, compared to ODN2006 (SEQ-49)
  Tumor inhibition rate (Day 12 after transplantation): 0.00%
B16F10 cells; Table 42, 4.71 nmol, compared to ODN2006 (SEQ-49)
  Tumor inhibition rate (Day 12 after transplantation): 0.00%
B16F10 cells; Table 43, 4.71 nmol, compared to ODN2006 (SEQ-49)
  Tumor inhibition rate (Day 14 after transplantation): 0.00%
B16F10 cells; Table 45, 4.71 nmol, compared to ODN2006 (SEQ-49)
  Tumor inhibition rate (Day 14 after transplantation): 0.00%
B16F10 cells; Table 46, 4.71 nmol, compared to ODN2006 (SEQ-49)
  Tumor inhibition rate (Day 14 after transplantation): 0.00%
B16F10 cells; Table 48, 4.71 nmol, compared to ODN2006 (SEQ-49)
  Tumor inhibition rate (Day 14 after transplantation): 0.00%
TRP2-specific CTL; Table 38, 4.71 nmol/head, ODN2006 (SEQ-49) group = 1
  Ratio of average value of antigen-specific CTL: 1.00
TRP2-specific CTL; Table 39, 4.71 nmol/head, ODN2006 (SEQ-49) group = 1
  Ratio of average value of antigen-specific CTL: 1.00
TRP2-specific CTL; Table 40, 4.71 nmol, ODN2006 (SEQ-49) group = 1
  Ratio of average value of antigen-specific CTL: 1.00
TRP2-specific CTL; Table 41, 4.71 nmol, ODN2006 (SEQ-49) group = 1
  Ratio of average value of antigen-specific CTL: 1.00
TRP2-specific CTL; Table 42, 4.71 nmol, ODN2006 (SEQ-49) group = 1
  Ratio of average value of antigen-specific CTL: 1.00
TRP2-specific CTL; Table 43, 4.71 nmol, ODN2006 (SEQ-49) group = 1
  Ratio of average value of antigen-specific CTL: 1.00
TRP2-specific CTL; Table 44, 4.71 nmol, ODN2006 (SEQ-49) group = 1
  Ratio of average value of antigen-specific CTL: 1.00
TRP2-specific CTL; Table 45, 4.71 nmol, ODN2006 (SEQ-49) group = 1
  Ratio of average value of antigen-specific CTL: 1.00
TRP2-specific CTL; Table 46, 4.71 nmol, ODN2006 (SEQ-49) group = 1
  Ratio of average value of antigen-specific CTL: 1.00
TRP2-specific CTL; Table 47, 4.71 nmol, ODN2006 (SEQ-49) group = 1
  Ratio of average value of antigen-specific CTL: 1.00
TRP2-specific CTL; Table 48, 4.71 nmol, ODN2006 (SEQ-49) group = 1
  Ratio of average value of antigen-specific CTL: 1.00
TRP2-specific CTL; Table 49, 4.71 nmol, ODN2006 (SEQ-49) group = 1
  Ratio of average value of antigen-specific CTL: 1.00
TRP2-specific CTL; Table 50, 4.71 nmol, ODN2006 (SEQ-49) group = 1
  Ratio of average value of antigen-specific CTL: 1.00
TRP2-specific CTL; Table 51, 4.71 nmol, ODN2006 (SEQ-49) group = 1
  Ratio of average value of antigen-specific CTL: 1.00
TRP2-specific CTL; Table 52, 4.71 nmol, ODN2006 (SEQ-49) group = 1
  Ratio of average value of antigen-specific CTL: 1.00
TRP2-specific CTL; Table 53, 4.71 nmol, ODN2006 (SEQ-49) group = 1
  Ratio of average value of antigen-specific CTL: 1.00
TRP2-specific CTL; Table 54, 4.71 nmol, ODN2006 (SEQ-49) group = 1
  Ratio of average value of antigen-specific CTL: 1.00
TRP2-specific CTL; Table 55, 4.71 nmol, ODN2006 (SEQ-49) group = 1
  Ratio of average value of antigen-specific CTL: 1.00
TRP2-specific CTL; Table 57, 4.71 nmol, ODN2006 (SEQ-49) group = 1
  Ratio of average value of antigen-specific CTL: 1.00
TRP2-specific CTL; Table 58, 4.71 nmol, ODN2006 (SEQ-49) group = 1
  Ratio of average value of antigen-specific CTL: 1.00
TRP2-specific CTL; Table 59, 4.71 nmol, ODN2006 (SEQ-49) group = 1
  Ratio of average value of antigen-specific CTL: 1.00
TRP2-specific CTL; Table 60, 4.71 nmol, ODN2006 (SEQ-49) group = 1
  Ratio of average value of antigen-specific CTL: 1.00
TRP2-specific CTL; Table 61, 4.71 nmol, ODN2006 (SEQ-49) group = 1
  Ratio of average value of antigen-specific CTL: 1.00
TRP2-specific CTL; Table 62, 4.71 nmol, ODN2006 (SEQ-49) group = 1
  Ratio of average value of antigen-specific CTL: 1.00
TRP2-specific CTL; Table 63, 4.71 nmol, ODN2006 (SEQ-49) group = 1
  Ratio of average value of antigen-specific CTL: 1.00
TRP2-specific CTL; Table 64, 4.71 nmol, ODN2006 (SEQ-49) group = 1
  Ratio of average value of antigen specific CTL: 1.00
TRP2-specific CTL; Table 67, 4.71 nmol, ODN2006 (SEQ-49) group = 1
  Ratio of average value of antigen-specific CTL: 1.00
TRP2-specific CTL; Table 68, 4.71 nmol, ODN2006 (SEQ-49) group = 1
  Ratio of average value of antigen-specific CTL: 1.00
